In this assay the target is T1, Japanese termite acetylcholinesterase (AChE).
T1 construct: gene AChE1; native; crude Triton X-100 extract (15,000 x g supernatant) of 50 whole adult termites, not purified
The assay is described as follows: modified Ellman assay, […] nm, probit analysis. The format is biochemical, Reticulitermes speratus. The settings on record: acetylthiocholine iodide substrate; pH 7.8 extraction buffer; room temperature; 10 min pre-incubation; crude extract.

Converted amounts (≈) assume the structure as drawn.

What is called IC50 is the concentration needed to halve the response being measured. The molecule `C=C/C(C)=C\CC=C(C)C` [compound 6, cis-Ocimene] had a concentration for half-maximal inhibition (IC50) of 0.131 mg/mL (≈ 962 µM).

Values taken from PMC6271168, “Fumigant Toxicity of Oriental Sweetgum (Liquidambar orientalis) and Valerian (Valeriana wallichii) Essential Oils and Their Components, Including Their Acetylcholinesterase Inhibitory Activity, against Japanese Termites (Reticulitermes speratus)” (Molecules, 2014).
